The text below walks through data of doi:10.1101/2025.07.18.665579v1 (biorxiv, 2025).

Common to all, as to test: microscale thermophoresis
Common to all, as to format: binding
For orientation: MST reads how a fluorescent partner responds to local heating, with and without ligand.

In experiment [1] the target is T1, SbXXT (Sb2G401600) (Sorghum bicolor, UniProt C5X460).
T1 sequence (C5X460 93-554): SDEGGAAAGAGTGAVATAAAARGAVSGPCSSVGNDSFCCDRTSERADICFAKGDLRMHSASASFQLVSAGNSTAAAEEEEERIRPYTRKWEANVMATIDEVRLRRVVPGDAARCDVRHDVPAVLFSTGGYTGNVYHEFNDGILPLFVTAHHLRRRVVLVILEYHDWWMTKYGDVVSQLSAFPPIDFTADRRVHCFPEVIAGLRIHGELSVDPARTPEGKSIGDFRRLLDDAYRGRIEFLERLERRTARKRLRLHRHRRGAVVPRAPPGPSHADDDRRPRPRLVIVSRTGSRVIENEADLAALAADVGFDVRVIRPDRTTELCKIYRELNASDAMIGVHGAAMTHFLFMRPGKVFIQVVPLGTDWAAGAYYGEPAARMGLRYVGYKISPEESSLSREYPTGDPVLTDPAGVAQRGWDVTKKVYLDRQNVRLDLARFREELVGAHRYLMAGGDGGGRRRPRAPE

Experiment [2] concerns the target T2, SbXXT (Sb2G401600) (Sorghum bicolor, UniProt C5X460, Y462F).
T2 sequence (C5X460 93-554 Y462F): T1 sequence (C5X460 93-554) with Y370F

For experiment [3], the target named is SbXAT (Sb3G094600) (Sorghum bicolor, UniProt A0A1B6Q2C2).
The target in experiment [4] is SbXAT (Sb3G094600) (Sorghum bicolor, UniProt A0A1B6Q2C2, F596Y).

Where a chain is given by its changes, count along the chain named.

SbXAT (Sb3G094600) (Sorghum bicolor, UniProt A0A1B6Q2C2, F596Y), sequence (A0A1B6Q2C2 198-685 F596Y): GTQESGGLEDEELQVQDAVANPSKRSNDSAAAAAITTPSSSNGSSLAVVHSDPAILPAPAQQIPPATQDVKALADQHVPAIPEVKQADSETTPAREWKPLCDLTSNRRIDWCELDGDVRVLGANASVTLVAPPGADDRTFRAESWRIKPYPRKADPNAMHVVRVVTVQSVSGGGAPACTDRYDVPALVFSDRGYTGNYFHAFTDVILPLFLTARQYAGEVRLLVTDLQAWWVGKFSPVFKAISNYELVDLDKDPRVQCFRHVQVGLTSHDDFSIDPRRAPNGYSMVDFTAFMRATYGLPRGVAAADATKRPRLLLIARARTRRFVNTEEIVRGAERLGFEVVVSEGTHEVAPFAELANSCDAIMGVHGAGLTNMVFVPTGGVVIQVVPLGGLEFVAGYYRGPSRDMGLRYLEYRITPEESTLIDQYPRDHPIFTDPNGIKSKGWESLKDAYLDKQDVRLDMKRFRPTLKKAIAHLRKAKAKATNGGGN
SbXAT (Sb3G094600) (Sorghum bicolor, UniProt A0A1B6Q2C2), sequence (A0A1B6Q2C2 198-685): as the sequence (A0A1B6Q2C2 198-685 F596Y) above, with Y399F counted along it

`O=c1ccn([C@@H]2O[C@H](COP(=O)(O)OP(=O)(O)O[C@H]3O[C@@H](CO)[C@H](O)[C@H]3O)[C@@H](O)[C@H]2O)c(=O)[nH]1` [UDP-Araf]: the dissociation constant (Kd) was 26 µM on SbXXT (Sb2G401600) [1], 19 µM at SbXXT (Sb2G401600) [2], 244 µM on SbXAT (Sb3G094600) [3] and 531 µM at SbXAT (Sb3G094600) [4].

For the molecule `O=c1ccn([C@@H]2O[C@H](COP(=O)(O)OP(=O)(O)O[C@H]3OC[C@@H](O)[C@H](O)[C@H]3O)[C@@H](O)[C@H]2O)c(=O)[nH]1` [UDP-Xyl], the Kd on SbXXT (Sb2G401600) [1] came to 13 µM; on SbXXT (Sb2G401600) [2] it was 15 µM; on SbXAT (Sb3G094600) [3], 373 µM; at SbXAT (Sb3G094600) [4], 221 µM.

Usually Kd stands for the equilibrium constant for the complex coming apart.
